Experimental findings from patent US11453671B2, “Pyrazolopyrimidine inhibitors of JAK kinases and uses thereof” (Genentech, Inc., priority 2020, dated 2022) are described below.

Assay [1] addresses Recombinant human JAK2 kinase domain protein (Residues 812-1132) (Homo sapiens, UniProt O60674). Briefly: JAK2 biochemical assay (microfluidic mobility shift, peptide phosphorylation). To be noted: Enzyme JAK2 Ki (nM), 25 μM ATP, 0.2 nM total JAK2.
The target of assay [2] is T1, recombinant human JAK1 kinase domain protein (Residues 854-1154) (Homo sapiens, UniProt P23458).
T1 construct: human JAK1 kinase domain protein (Residues 854-1154); purchased Proteros Biostructures GmbH (Martinsried, Germany); host or cells: insect cells
Briefly: JAK1 biochemical assay (microfluidic mobility shift, peptide phosphorylation). To be noted: 25 μM ATP, 1 nM total JAK1; read-out: Enzyme JAK1 Ki. From the text: JAK1 and JAK2 Biochemical Assays

Assay [3] relates to JAK1: IL-13-stimulated STAT6 phosphorylation in BEAS-2B cells. Briefly: P-STAT6 BEAS-2B+IL-13 Cell Assay. To be noted: IL-13 stimulation, read-out: Cellular JAK1 PSTAT6 BEAS2B + IL13 IC50. It is filed as cell-based, human. As for the experimental part: P-STAT6 BEAS-2B+IL-13 Cell Assay
In order to study the effect of JAK1 inhibitors in a cell line that is relevant to the cell biology of human asthma, an IL-13-stimulated STAT6 phosphorylation assay in the human lung bronchial epithelial BEAS-2B cell line was developed.
BEAS-2B cells (ATCC® CRL-9609™) were grown in Bronchial Epithelial Growth Medium (BEGM) (Lonza Catalog No. CC-3170; Walkersville, Md.; or PromoCell Catalog No. C-21060; Heidelberg, Germany). Test compound stock solutions (0.5 mM in DMSO) were serially diluted 1:2 in DMSO to generate a 10-point concentration curve (at 500×test concentration), which was further diluted by a 50-fold dilution step in BEGM to generate a 10× concentration curve (in 2% DMSO). Cells were plated at 100,000 cells/well in 200 μL of BEGM in 96-well plates and incubated for 48 hours at 37° C. in a humidified incubator. Medium was aspirated from the cells and replaced with 70 μL of fresh BEGM. Diluted test compound (10 μL; or 2% DMSO in assay medium) was added to the cells, and the plates were incubated for 1 hour at 37° C. in a humidified incubator. Twenty μL of 250 ng/mL human recombinant IL-13 (Bio Techne Catalog No. 213-ILB) was then added to the cells and incubated for 15 minutes at 37° C. Medium was aspirated from the cells and 60 μL of ice-cold 1×cell lysis buffer (Cell Signaling Technologies; Catalog No. 9803S) containing 1 mM PMSF was added to the cells. Assay plates were incubated at −80° C. for at least 1 hour. P-STAT6 was measured by coating GAR plates (MSD; Catalog No. L45RA-1) with rabbit anti-human total STAT6 antibody (Cell Signaling Technologies; Catalog No. 9362S), incubating the cell lysates in the coated plates overnight at 4° C., and then detecting with mouse anti-phospho-STAT6 (Tyr641) Clone 16E12 antibody (Millipore; Catalog No. 05-590, custom labeled by MSD with SULFO-tag) using standard MSD plate processing, washing, and detection protocols. Plates were read on the MESO SECTOR S600. Data Analysis
Data analysis was performed by subtracting negative control values from all wells and determining percent of control using the positive control values; the IC50 was determined with a four-parameter logistic fit model as shown in Equation 4.

Structures are written as SMILES. pIC50, pKi: −log10 of the molar value. Read-outs that look alike come from different tables or passages of the source.

T1 sequence (P23458 854-1154): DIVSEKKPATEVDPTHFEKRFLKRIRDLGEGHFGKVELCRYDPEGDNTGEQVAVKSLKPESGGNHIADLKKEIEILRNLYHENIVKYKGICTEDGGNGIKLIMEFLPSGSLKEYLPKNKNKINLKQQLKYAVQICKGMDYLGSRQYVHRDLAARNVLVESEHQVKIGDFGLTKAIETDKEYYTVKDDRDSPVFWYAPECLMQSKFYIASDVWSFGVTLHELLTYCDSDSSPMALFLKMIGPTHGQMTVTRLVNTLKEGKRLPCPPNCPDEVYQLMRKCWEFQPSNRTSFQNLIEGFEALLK
Sequence of Recombinant human JAK2 kinase domain protein (Residues 812-1132) (O60674 812-1132): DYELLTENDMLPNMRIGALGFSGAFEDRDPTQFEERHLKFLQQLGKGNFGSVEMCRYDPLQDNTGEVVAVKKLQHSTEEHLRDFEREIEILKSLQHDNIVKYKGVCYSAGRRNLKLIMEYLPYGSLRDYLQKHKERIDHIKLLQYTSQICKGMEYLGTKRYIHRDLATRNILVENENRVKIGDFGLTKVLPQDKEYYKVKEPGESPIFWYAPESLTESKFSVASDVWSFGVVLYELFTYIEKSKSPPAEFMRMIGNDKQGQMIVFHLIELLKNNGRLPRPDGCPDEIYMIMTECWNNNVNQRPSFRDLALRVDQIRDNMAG

`CN1CCC(S(=O)(=O)c2ccc(OC(F)F)c(-c3nn(C)cc3NC(=O)c3cnn4cccnc34)c2)C1` (single isomer, unassigned) [Example 19, N-[3-[2-(difluoromethoxy)-5-(1-methylpyrrolidin-3-yl)sulfonyl-phenyl]-1-methyl-pyrazol-4-yl]pyrazolo[1,5-a]pyrimidine-3-carboxamide]: the Ki (as a rule, the dissociation constant of the complex between target and ligand, obtained from inhibition or displacement) in assay [1] is 1.7 nM. The pKi (usually −log10 of the Ki, conventionally taken in molar units) in assay [2] was 8.40. In addition, the pIC50 (commonly the negative decadic logarithm of the IC50, by convention in mol/L) in assay [3] (Homo sapiens, BEAS-2B) is 6.92.

Consider `CN1CCC(S(=O)(=O)c2ccc(OC(F)F)c(-c3nn(C)cc3NC(=O)c3cnn4cccnc34)c2)C1` (single isomer, unassigned) [Example 20, N-[3-[2-(difluoromethoxy)-5-(1-methylpyrrolidin-3-yl)sulfonyl-phenyl]-1-methyl-pyrazol-4-yl]pyrazolo[1,5-a]pyrimidine-3-carboxamide], for which the Ki in assay [1] was found to be 0.65 nM. For the same compound, the pKi in assay [2] is 8.82. Moreover, the pIC50 in assay [3] was 7.19.

In the case of `CS(=O)(=O)c1ccc(OC(F)F)c(-c2nn(C3CCOC3=O)cc2NC(=O)c2cnn3cccnc23)c1` (single isomer, unassigned) [Example 32, N-[3-[2-(difluoromethoxy)-5-methylsulfonyl-phenyl]-1-(2-oxotetrahydrofuran-3-yl)pyrazol-4-yl]pyrazolo[1,5-a]pyrimidine-3-carboxamide], the Ki in assay [1] amounted to 0.62 nM. In addition, in assay [2], the pKi is 8.96. Besides, the pIC50 in assay [3] (Homo sapiens, BEAS-2B) is 6.92.

For the compound `CS(=O)(=O)c1ccc(OC(F)F)c(-c2nn(C3CCOC3=O)cc2NC(=O)c2cnn3cccnc23)c1` (single isomer, unassigned) [Example 33, N-[3-[2-(difluoromethoxy)-5-methylsulfonyl-phenyl]-1-(2-oxotetrahydrofuran-3-yl)pyrazol-4-yl]pyrazolo[1,5-a]pyrimidine-3-carboxamide], in assay [1], the Ki turned out to be 0.23 nM. Also, the pKi in assay [2] is 9.40. Further, the pIC50 in assay [3] was 7.00.

On to `CC(O)C(C)S(=O)(=O)c1ccc(OC(F)F)c(-c2nn(C)cc2NC(=O)c2cnn3cccnc23)c1` (single isomer, unassigned) [Example 70, N-[3-[2-(difluoromethxoy)-5-(2-hydroxy-1-methyl-propyl)sulfonyl-phenyl]-1-methyl-pyrazol-4-yl]pyrazolo[1,5-a]pyrimidine-3-carboxamide], for which the Ki in assay [1] amounted to 0.33 nM. Besides, the pKi in assay [2] was 9.00. The pIC50 in assay [3] is 7.12.

`CC(O)C(C)S(=O)(=O)c1ccc(OC(F)F)c(-c2nn(C)cc2NC(=O)c2cnn3cccnc23)c1` (single isomer, unassigned) [Example 71, N-[3-[2-(difluoromethoxy)-5-(2-hydroxy-1-methyl-propyl)sulfonyl-phenyl]-1-methyl-pyrazol-4-yl]pyrazolo[1,5-a]pyrimidine-3-carboxamide]: in assay [1], the Ki was found to be 0.46 nM. Besides, in assay [2], the pKi was 8.85. Also, in assay [3], the negative logarithm of the IC50 (pIC50) is 6.96.

As to `CN1CCCC1CCn1cc(S(=O)(=O)c2ccc(OC(F)F)c(-c3nn(C)cc3NC(=O)c3cnn4cccnc34)c2)cn1` (stereo in doubt) [Example 57, N-[3-[2-(difluoromethoxy)-5-[1-[2-[(2S)-1-methylpyrrolidin-2-yl]ethyl]pyrazol-4-yl]sulfonyl-phenyl]-1-methyl-pyrazol-4-yl]pyrazolo[1,5-a]pyrimidine-3-carboxamide], the Ki in assay [1] is 0.54 nM. The pKi in assay [2] was 9.24. In assay [3] (Homo sapiens, BEAS-2B), the pIC50 is 7.27.

`CN1CC(S(=O)(=O)c2ccc(OC(F)F)c(-c3nn(C)cc3NC(=O)c3cnn4cccnc34)c2)C1` [Example 3, N-[3-[2-(difluoromethoxy)-5-(1-methylazetidin-3-yl)sulfonyl-phenyl]-1-methyl-pyrazol-4-yl]pyrazolo[1,5-a]pyrimidine-3-carboxamide]: in assay [1], the Ki was found to be 0.66 nM. In addition, the negative logarithm of the Ki (pKi) in assay [2] was 8.70. Moreover, the pIC50 in assay [3] (Homo sapiens, BEAS-2B) was 7.24.

Turning to `Cn1cc(NC(=O)c2cnn3cccnc23)c(-c2cc(S(=O)(=O)C3CNC3)ccc2OC(F)F)n1` [Example 4, N-[3-[5-(azetidin-3-ylsulfonyl)-2-(difluoromethoxy)phenyl]-1-methyl-pyrazol-4-yl]pyrazolo[1,5-a]pyrimidine-3-carboxamide], the Ki in assay [1] came out at 0.6 nM. Further, the pKi in assay [2] is 8.85. Further, the pIC50 in assay [3] (Homo sapiens, BEAS-2B) is 6.74.

With `Cn1cc(NC(=O)c2cnn3cccnc23)c(-c2cc(S(=O)(=O)CCN)ccc2OC(F)F)n1` [Example 8, N-[3-[5-(2-aminoethylsulfonyl)-2-(difluoromethoxy)phenyl]-1-methyl-pyrazol-4-yl]pyrazolo[1,5-a]pyrimidine-3-carboxamide], the Ki in assay [1] is 0.48 nM. Besides, the pKi in assay [2] was 9.09. In assay [3] (Homo sapiens, BEAS-2B), the pIC50 was 7.04.

Regarding `Cn1cc(NC(=O)c2cnn3cccnc23)c(-c2cc(S(=O)(=O)C3CCNC3)ccc2OC(F)F)n1` (stereo not drawn) [Example 10, N-[3-[2-(difluoromethoxy)-5-pyrrolidin-3-ylsulfonyl-phenyl]-1-methyl-pyrazol-4-yl]pyrazolo[1,5-a]pyrimidine-3-carboxamide], in assay [1], the Ki turned out to be 0.6 nM. Further, the pKi in assay [2] was 9.02. For the same compound, the pIC50 in assay [3] (Homo sapiens, BEAS-2B) is 7.28.

Turning to `Cn1cc(NC(=O)c2cnn3cccnc23)c(-c2cc(S(=O)(=O)c3cccc(CCN)c3)ccc2OC(F)F)n1` [Example 18, N-[3-[5-[3-(2-aminoethyl)phenyl]sulfonyl-2-(difluoromethoxy)phenyl]-1-methyl-pyrazol-4-yl]pyrazolo[1,5-a]pyrimidine-3-carboxamide], the Ki in assay [1] came out at 0.4 nM. Besides, in assay [2], the pKi is 9.37. In addition, in assay [3] (Homo sapiens, BEAS-2B), the pIC50 is 6.54.

Regarding `CC(=O)N1CC(S(=O)(=O)c2ccc(OC(F)F)c(-c3nn(C)cc3NC(=O)c3cnn4cccnc34)c2)C1` [Example 27, N-[3-[5-(1-acetylazetidin-3-yl)sulfonyl-2-(difluoromethoxy)phenyl]-1-methyl-pyrazol-4-yl]pryazolo[1,5-a]pyrimidine-3-carboxamide], the Ki in assay [1] came to 0.26 nM. For the same compound, the pKi in assay [2] is 9.23. The pIC50 in assay [3] (Homo sapiens, BEAS-2B) was 7.00.

In the case of `N#CCn1cc(NC(=O)c2cnn3cccnc23)c(-c2cc(S(=O)(=O)C(F)F)ccc2OC(F)F)n1` [Example 29, N-[1-(cyanomethyl)-3-[2-(difluoromethoxy)-5-(difluoromethylsulfonyl)phenyl]pyrazol-4-yl]pyrazolo[1,5-a]pyrimidine-3-carboxamide], the Ki in assay [1] stood at 0.37 nM. The pKi in assay [2] is 9.24. Moreover, the pIC50 in assay [3] (Homo sapiens, BEAS-2B) was 7.60.

For `Cn1cc(NC(=O)c2cnn3cccnc23)c(-c2cc(S(N)(=O)=O)ccc2OC(F)F)n1` [Example 31, N-[3-[2-(difluoromethoxy)-5-sulfamoyl-phenyl]-1-methyl-pyrazol-4-yl]pyrazolo[1,5-a]pyrimidine-3-carboxamide], the Ki in assay [1] came out at 0.38 nM. The pKi in assay [2] is 9.08. Further, in assay [3] (Homo sapiens, BEAS-2B), the pIC50 was 7.29.

Regarding `CC(C)OC(=O)n1cc(NC(=O)c2cnn3cccnc23)c(-c2cc(S(C)(=O)=O)ccc2OC(F)F)n1` [Example 34, isopropyl 3-[2-(difluoromethoxy)-5-methylsulfonyl-phenyl]-4-(pyrazolo[1,5-a]pyrimidine-3-carbonylamino)pyrazole-1-carboxylate], the Ki in assay [1] is 0.29 nM. Also, the pKi in assay [2] was 9.51. In assay [3] (Homo sapiens, BEAS-2B), the pIC50 is 7.68.

As to `C[C@H](O)Cn1cc(S(=O)(=O)c2ccc(OC(F)F)c(-c3nn(C)cc3NC(=O)c3cnn4cccnc34)c2)cn1` [Example 38, N-[3-[2-(difluoromethoxy)-5-[1-[(2S)-2-hydroxypropyl]pyrazol-4-yl]sulfonyl-phenyl]-1-methyl-pyrazol-4-yl]pyrazolo[1,5-a]pyrimidine-3-carboxamide], the Ki in assay [1] stood at 0.25 nM. Further, in assay [2], the pKi is 9.47. In addition, in assay [3] (Homo sapiens, BEAS-2B), the pIC50 is 7.05.

With `Cn1cc(NC(=O)c2cnn3cccnc23)c(-c2cc(S(=O)(=O)C(CF)CF)ccc2OC(F)F)n1` [Example 39, N-[3-[2-(difluoromethoxy)-5-[2-fluoro-1-(fluoromethyl)ethyl]sulfonyl-phenyl]-1-methyl-pyrazol-4-yl]pyrazolo[1,5-a]pyrimidine-3-carboxamide], the Ki in assay [1] was determined as 0.53 nM. For the same compound, the pKi in assay [2] is 8.82. Moreover, in assay [3] (Homo sapiens, BEAS-2B), the pIC50 is 6.64.
